In US20120121591A1 (priority 2009, published 2012):

Assays:
Format in all cases: cell-based
[1] = system: IFN-g secretion from T cells in human whole blood; conditions: read-out: WB (IFNg) IC50 (nM, Avg)
hKv1.3 = hKv1.3 (Homo sapiens, UniProt P22001); test: cell-based; conditions: Kv1.3 (IWQ) IC50 (nM, Avg)
[2] = system: IL-2 secretion from T cells in human whole blood; conditions: read-out: WB (IL-2) IC50 (nM, Avg)

Chain of hKv1.3 (P22001 whole entry): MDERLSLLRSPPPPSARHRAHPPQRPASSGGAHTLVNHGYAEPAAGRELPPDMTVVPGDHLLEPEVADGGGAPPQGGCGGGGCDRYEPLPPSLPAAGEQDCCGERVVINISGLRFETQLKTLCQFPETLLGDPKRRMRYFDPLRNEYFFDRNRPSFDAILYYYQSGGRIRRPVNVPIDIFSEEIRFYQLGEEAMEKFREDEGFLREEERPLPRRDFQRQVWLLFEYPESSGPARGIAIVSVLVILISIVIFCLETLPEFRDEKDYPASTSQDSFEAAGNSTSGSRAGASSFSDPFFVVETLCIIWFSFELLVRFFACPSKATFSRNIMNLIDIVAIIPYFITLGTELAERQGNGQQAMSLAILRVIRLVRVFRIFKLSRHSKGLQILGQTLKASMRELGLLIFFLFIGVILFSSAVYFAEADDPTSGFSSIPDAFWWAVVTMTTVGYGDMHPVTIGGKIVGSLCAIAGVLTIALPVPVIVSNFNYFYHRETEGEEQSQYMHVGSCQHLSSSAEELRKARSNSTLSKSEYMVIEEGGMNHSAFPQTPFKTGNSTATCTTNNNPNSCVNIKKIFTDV

Structure (SMILES)	IC50 [1] [nM]	IC50 (hKv1.3) [nM]	IC50 [2] [nM]
CC[C@H](C)[C@@H]1NC(=O)[C@@H](NC(=O)[C@H](CO)NC(=O)[C@@H](N)CCCNC(=N)N)CSSC[C@@H](C(=O)O)NC(=O)[C@H]([C@@H](C)O)NC(=O)CNC(=O)[C@@H]2CSSC[C@@H]3NC(=O)[C@H](CCCCN)NC(=O)[C@H](Cc4ccccc4)NC(=O)[C@H](C)NC(=O)[C@H]([C@@H](C)O)NC(=O)[C@H](CSSC[C@H](NC(=O)[C@H](Cc4cccc5ccccc45)NC(=O)[C@H](CO)NC(=O)[C@H](CC(C)C)NC(=O)[C@H](CCCNC(=N)N)NC(=O)[C@H](Cc4ccc(O)cc4)NC(=O)[C@H](CCCCN)NC(=O)[C@H](CCSC)NC(=O)[C@H](CO)NC(=O)[C@H](Cc4c[nH]cn4)NC(=O)[C@H](CCCCN)NC3=O)C(=O)N[C@@H](CCCNC(=N)N)C(=O)N[C@@H](CCCCN)C(=O)N[C@@H]([C@@H](C)O)C(=O)N2)NC(=O)[C@H](CCCNC(=N)N)NC(=O)[C@H](CO)NC(=O)[C@H](CCCCN)NC(=O)[C@@H]2CCCN2C(=O)[C@H]([C@@H](C)CC)NC(=O)[C@H]([C@@H](C)O)NC(=O)[C@H](CC(=O)O)NC1=O [[Lys16,1-Na127]ShK]	5.68	0.113	0.924
CC[C@H](C)[C@@H]1NC(=O)[C@@H](NC(=O)[C@H](CO)NC(=O)[C@@H](N)CCCNC(=N)N)CSSC[C@@H](C(N)=O)NC(=O)[C@H]([C@@H](C)O)NC(=O)CNC(=O)[C@@H]2CSSC[C@@H]3NC(=O)[C@H](CCCCN)NC(=O)[C@H](Cc4ccccc4)NC(=O)[C@H](C)NC(=O)[C@H]([C@@H](C)O)NC(=O)[C@H](CSSC[C@H](NC(=O)[C@H](Cc4ccccc4)NC(=O)[C@H](Cc4ccc5ccccc5c4)NC(=O)[C@H](CC(C)C)NC(=O)[C@H](CCCNC(=N)N)NC(=O)[C@H](Cc4ccc(O)cc4)NC(=O)[C@H](CCCCN)NC(=O)[C@H](CCSC)NC(=O)[C@H](CO)NC(=O)[C@H](Cc4c[nH]cn4)NC(=O)[C@H](CCCCN)NC3=O)C(=O)N[C@@H](CCCCN)C(=O)N[C@@H](CCCCN)C(=O)N[C@@H]([C@@H](C)O)C(=O)N2)NC(=O)[C@H](CCCNC(=N)N)NC(=O)[C@H](CO)NC(=O)[C@H](CCCCN)NC(=O)[C@@H]2CCCN2C(=O)[C@H]([C@@H](C)CC)NC(=O)[C@H]([C@@H](C)O)NC(=O)[C@H](CC(=O)O)NC1=O [[Lys16,29;2-Na126]ShK-amide]	0.148	0.762	0.222
CCCC[C@@H]1NC(=O)[C@H](CO)NC(=O)[C@H](Cc2c[nH]cn2)NC(=O)[C@H](CCCCN)NC(=O)[C@@H]2CSSC[C@@H]3NC(=O)[C@H]([C@@H](C)O)NC(=O)[C@H](CCCNC(=N)N)NC(=O)[C@H](CCCCN)NC(=O)[C@H](CSSC[C@H](NC(=O)[C@H](CCCNC(=N)N)NC(=O)[C@H](CO)NC(=O)[C@H](CCCCN)NC(=O)[C@@H]4CCCN4C(=O)[C@H]([C@@H](C)CC)NC(=O)[C@H]([C@@H](C)O)NC(=O)[C@H](CC(=O)O)NC(=O)[C@H]([C@@H](C)CC)NC(=O)[C@@H](NC(=O)[C@H](CO)NC(=O)[C@@H](N)CCCNC(=N)N)CSSC[C@@H](C(N)=O)NC(=O)[C@H]([C@@H](C)O)NC(=O)CNC3=O)C(=O)N[C@@H]([C@@H](C)O)C(=O)N[C@@H](C)C(=O)N[C@@H](Cc3ccccc3)C(=O)N[C@@H](CCCCN)C(=O)N2)NC(=O)[C@H](Cc2ccccc2)NC(=O)[C@H](Cc2cccc3ccccc23)NC(=O)[C@H](CC(C)C)NC(=O)[C@H](CCCNC(=N)N)NC(=O)[C@H](Cc2ccc(O)cc2)NC(=O)[C@H](CCCCN)NC1=O [[Lys16,29; 1-Nal26;Arg30;Nle21]ShK-amide]	8.22	2.33	9.44
CC[C@H](C)[C@@H]1NC(=O)[C@@H](NC(=O)[C@H](CO)NC(=O)[C@@H](N)CCCNC(=N)N)CSSC[C@@H](C(N)=O)NC(=O)[C@H]([C@@H](C)O)NC(=O)CNC(=O)[C@@H]2CSSC[C@@H]3NC(=O)[C@H](CCCCN)NC(=O)[C@H](Cc4ccccc4)NC(=O)[C@H](C)NC(=O)[C@H]([C@@H](C)O)NC(=O)[C@H](CSSC[C@H](NC(=O)[C@H](Cc4ccccc4)NC(=O)[C@H](Cc4cccc5ccccc45)NC(=O)[C@H](CC(C)C)NC(=O)[C@H](CCCNC(=N)N)NC(=O)[C@H](Cc4ccc(O)cc4)NC(=O)[C@H](CCCCN)NC(=O)[C@H](CCSC)NC(=O)[C@H](CO)NC(=O)[C@H](Cc4c[nH]cn4)NC(=O)[C@H](CCCCN)NC3=O)C(=O)N[C@@H](CCCCN)C(=O)N[C@@H](CCCCN)C(=O)N[C@@H]([C@@H](C)O)C(=O)N2)NC(=O)[C@H](CCCNC(=N)N)NC(=O)[C@H](CO)NC(=O)[C@H](CCCCN)NC(=O)[C@@H]2CCCN2C(=O)[C@H]([C@@H](C)CC)NC(=O)[C@H]([C@@H](C)O)NC(=O)[C@H](CC(=O)O)NC1=O [[Lys16,29; 1-Nal26]ShK-amide]	1.98	0.341	0.808
CC[C@H](C)[C@@H]1NC(=O)[C@@H](NC(=O)[C@H](CO)NC(=O)[C@@H](N)CCCNC(=N)N)CSSC[C@@H](C(N)=O)NC(=O)[C@H]([C@@H](C)O)NC(=O)CNC(=O)[C@@H]2CSSC[C@@H]3NC(=O)[C@H](CCCCN)NC(=O)[C@H](Cc4ccccc4)NC(=O)[C@H](C)NC(=O)[C@H]([C@@H](C)O)NC(=O)[C@H](CSSC[C@H](NC(=O)[C@H](Cc4ccccc4)NC(=O)[C@H](CO)NC(=O)[C@H](CC(C)C)NC(=O)[C@H](CCCNC(=N)N)NC(=O)[C@H](Cc4ccc(O)cc4)NC(=O)[C@H](CCCCN)NC(=O)[C@H](CCSC)NC(=O)[C@H](CO)NC(=O)[C@H](Cc4c[nH]cn4)NC(=O)[C@H](CCCCN)NC3=O)C(=O)N[C@@H](CCCCN)C(=O)N[C@@H](CCCNC(=N)N)C(=O)N[C@@H]([C@@H](C)O)C(=O)N2)NC(=O)[C@H](CCCNC(=N)N)NC(=O)[C@H](CO)NC(=O)[C@H](CCCCN)NC(=O)[C@@H]2CCCN2C(=O)[C@H]([C@@H](C)CC)NC(=O)[C@H]([C@@H](C)O)NC(=O)[C@H](CC(=O)O)NC1=O [[Lys16,29; Arg30]ShK-amide]	0.281	0.131	0.339
CCCC[C@@H]1NC(=O)[C@H](CO)NC(=O)[C@H](Cc2c[nH]cn2)NC(=O)[C@H](CCCCN)NC(=O)[C@@H]2CSSC[C@@H]3NC(=O)[C@H]([C@@H](C)O)NC(=O)[C@H](CCCNC(=N)N)NC(=O)[C@H](CCCCN)NC(=O)[C@H](CSSC[C@H](NC(=O)[C@H](CCCNC(=N)N)NC(=O)[C@H](CO)NC(=O)[C@H](CCCCN)NC(=O)[C@@H]4CCCN4C(=O)[C@H]([C@@H](C)CC)NC(=O)[C@H]([C@@H](C)O)NC(=O)[C@H](CC(=O)O)NC(=O)[C@H]([C@@H](C)CC)NC(=O)[C@@H](NC(=O)[C@H](CO)NC(=O)[C@@H](N)CCCNC(=N)N)CSSC[C@@H](C(N)=O)NC(=O)[C@H]([C@@H](C)O)NC(=O)CNC3=O)C(=O)N[C@@H]([C@@H](C)O)C(=O)N[C@@H](C)C(=O)N[C@@H](Cc3ccccc3)C(=O)N[C@@H](CCCCN)C(=O)N2)NC(=O)[C@H](Cc2ccccc2)NC(=O)[C@H](CO)NC(=O)[C@H](CC(C)C)NC(=O)[C@H](CCCNC(=N)N)NC(=O)[C@H](Cc2ccc(O)cc2)NC(=O)[C@H](CCCCN)NC1=O [[Lys16,29; Nle21,Arg30]ShK-amide]	2.84	0.484	1.72
CC[C@H](C)[C@@H]1NC(=O)[C@@H](NC(=O)[C@H](CO)NC(=O)[C@@H](N)CCCNC(=N)N)CSSC[C@@H](C(N)=O)NC(=O)[C@H]([C@@H](C)O)NC(=O)CNC(=O)[C@@H]2CSSC[C@@H]3NC(=O)[C@H](CCCCN)NC(=O)[C@H](Cc4ccccc4)NC(=O)[C@H](C)NC(=O)[C@H]([C@@H](C)O)NC(=O)[C@H](CSSC[C@H](NC(=O)[C@H](Cc4c[nH]c5ccccc45)NC(=O)[C@H](CO)NC(=O)[C@H](CC(C)C)NC(=O)[C@H](CCCNC(=N)N)NC(=O)[C@H](Cc4ccc(O)cc4)NC(=O)[C@H](CCCCN)NC(=O)[C@H](CCSC)NC(=O)[C@H](CO)NC(=O)[C@H](Cc4c[nH]cn4)NC(=O)[C@H](CCCCN)NC3=O)C(=O)N[C@@H](CCCCN)C(=O)N[C@@H](CCCCN)C(=O)N[C@@H]([C@@H](C)O)C(=O)N2)NC(=O)[C@H](CCCNC(=N)N)NC(=O)[C@H](CO)NC(=O)[C@H](CCCCN)NC(=O)[C@@H]2CCCN2C(=O)[C@H]([C@@H](C)CC)NC(=O)[C@H]([C@@H](C)O)NC(=O)[C@H](CC(=O)O)NC1=O [[Lys16,29;Trp27]ShK-amide]	0.606	0.121	0.264
CC[C@H](C)[C@@H]1NC(=O)[C@@H](NC(=O)[C@H](CO)NC(=O)[C@@H](N)CCCNC(=N)N)CSSC[C@@H](C(N)=O)NC(=O)[C@H]([C@@H](C)O)NC(=O)CNC(=O)[C@@H]2CSSC[C@@H]3NC(=O)[C@H](CCCCN)NC(=O)[C@H](Cc4ccccc4)NC(=O)[C@H](C)NC(=O)[C@H]([C@@H](C)O)NC(=O)[C@H](CSSC[C@H](NC(=O)[C@H](Cc4ccccc4)NC(=O)[C@H](Cc4ccc(O)cc4)NC(=O)[C@H](CC(C)C)NC(=O)[C@H](CCCNC(=N)N)NC(=O)[C@H](Cc4ccc(O)cc4)NC(=O)[C@H](CCCCN)NC(=O)[C@H](CCSC)NC(=O)[C@H](CO)NC(=O)[C@H](Cc4c[nH]cn4)NC(=O)[C@H](CCCCN)NC3=O)C(=O)N[C@@H](CCCCN)C(=O)N[C@@H](CCCCN)C(=O)N[C@@H]([C@@H](C)O)C(=O)N2)NC(=O)[C@H](CCCNC(=N)N)NC(=O)[C@H](CO)NC(=O)[C@H](CCCCN)NC(=O)[C@@H]2CCCN2C(=O)[C@H]([C@@H](C)CC)NC(=O)[C@H]([C@@H](C)O)NC(=O)[C@H](CC(=O)O)NC1=O [[Lys16,29;Tyr26]ShK-amide]	0.754	0.084	1.04
